{"source": "patent US20200308162A1", "about": "“DRUGS AND COMPOSITIONS FOR OCULAR DELIVERY” (Graybug Vision, Inc., priority 2017, published 2020)", "key": {"[1]": {"test": "In vitro stability of ethacrynic acid prodrugs at 37° C.", "assay_type": "physicochemical", "details": "37° C.", "text": "As evidenced, both prodrugs of ethacrynic acid degrade steadily over the 6 day period. As the ester linkages are hydrolyzed, the parent compound is generated in a linear rate. The rate of degradation to the parent compound is faster for the shorter […] in comparison to the degradation kinetics for ethacrynic acid-PLA(n=4)-ethyl ester (1).\nApproximately 94% of the ECA-PLA(n=4) prodrug (1) has been converted to free ECA by day 6, in comparison to only 56% for ECA-PLA(n=6) (25). Also, by day 6, all the initial prodrug has been degraded into intermediates and free drug respectively."}, "[2]": {"test": "Percent drug loading of ethacrynic acid prodrug microparticles (RP-HPLC)", "assay_type": "physicochemical", "description": "To determine the percent drug loading (% DL), 10 mg of particles was weighed into a glass scintillation vial and dissolved with 10 mL of MeCN:water (1:1, v/v). The solution was filtered through a 0.2 μm nylon syringe filter and the drug content was determined by RP-HPLC referenced against a standard calibration curve."}, "[3]": {"test": "Mean size of ethacrynic acid prodrug encapsulated microparticles", "assay_type": "physicochemical"}, "[4]": {"test": "Drug release kinetics of Timolol and ethacrynic acid prodrugs from polymer microparticles", "assay_type": "physicochemical", "description": "The effect of polymer composition including monomer ratio and molecular weight, polymer end-groups (ester or acid), inherent viscosity and polymer blend ratios on particle degradation and drug release kinetics of Timolol-O-ethyl fumurate (17) was evaluated and is illustrated in FIG. 5. The rate of particle degradation was slowed and drug release was prolonged when the mole % of DL-lactide over glycolide was increased. By incorporating polymers with different monomer ratios (i.e., PLA, PLGA8515, PLGA525, PLGA5050 wherein 8515 refers to 85% DL-lactide and 15% glycolide) into the particles, it is possible to fine-tune the degradation rate of the particles to achieve a linear rate of drug release from the particles to minimize burst or lag and to extend the duration of release. […] The 78/22(PLA 5A/PLGA8515 4.5A) and 65/20/15(PLA 4A/PLGA6515 4.5A/PLGA5050 4A) polymer blends generated ideal particles for a 3-6 month linear release formulation. […] The rate of release was independent of the salt form. […] Thus, release rate is not solely dictated by the physicochemical properties of the linker, but rather must be attributed to a combination of parameters that may include linker type and site of linker conjugation.\nFIG. 6 illustrates the release kinetics of ethacrynic acid-PLA(n=4)-ethyl ester (1) from PLGA microparticles. The drug was released over a period of approximately 66 days.\nFIG. 8 and FIG. 9 illustrate the release kinetics of ethacrynic acid-PLA(n=4)-ethyl ester (1) and ethacrynic acid-PLA(n=6)-ethyl ester (25), respectively, from PLGA microparticles. The drug was released from a number of formulations over a period of greater than 90 days. […] Particles generated with 1% PVA in PBS was compared against particles generated in 1% PVA in water (FIG. 10).\nBased upon these initial formulation screens, the formulation comprising of 1% mPEG-PLGA and 99% PLA100 4.5A:PLGA8515 5A (77:22) was selected as the lead formulation for ECA-PLA(n=4) (1) and ECA-PLA(n=6) (25) prodrugs. The particles were prepared in 1% PVA in water. The release profiles for the lead ECA-PLA(n=4) (1) and ECA-PLA(=6) (25) particle formulations are illustrated in FIG. 11."}, "[5]": {"test": "Degradation of ECA prodrugs heated at 60° C. in water/acetonitrile (HPLC-MS)", "assay_type": "physicochemical", "details": "60° C. in 50/50 water (0.1% FA)/acetonitrile (0.1% FA)", "description": "Prodrugs of ECA were challenged by heating at 60° C. in 50/50 water (0.1% FA)/acetonitrile (0.1% FA), and the degradants were separated using a reverse phase HPLC equipped with a C-18 bonded stationary phase. The identification of various peaks was accomplished by mass spectrometry detector and retention time comparison with available standards.\nChromatographic separation of ethacrynic acid parent compounds and their PLA conjugated derivatives was achieved using an Agilent 1260 Infinity II LCMS equipped with an Waters Symmetry C18 column (5 μm, 4.6 mm×150 mm) as the stationary phase and acetonitrile/water as the mobile phase. The gradient separation method is outlined in Table 4. The analysis was performed at an injection volume of 10 μL, a flow rate of 1.2 mL/min and a detection wavelength of 230 nm at 25° C. Retention times for ethacrynic acid and PLA-conjugated compounds are illustrated in Table 5.\nTable 6 illustrates the calculated mass and structure of all the individual intermediates and the parent compound. Calculated mass ions were extracted using a MS G6135B detector with positive and negative polarity acquisition between mass 100-1000, fragmentation at 250, gain at 1, threshold of 150, and speed of 2080 u/sec. Extracted ions and polarity for individual mass spectometry peak identification is outlined in Table 7."}, "[6]": {"test": "Drug solubility in water, DMSO and DCM (HPLC of filtered supernatant)", "details": "thermodynamic from solid", "method": "For each test, approximately 5-10 mg was transferred to a 10 mL glass vial. Aqueous or organic solvent was added to each vial to achieve an overall concentration of 50 mg/mL. After vortexing aggressively for 2-3 minutes and sonicating in a bath sonicator for 5 minutes, undissolved drug was spun down at 1200 rpm for 5 minutes to generate a pellet. The supernatant was collected and filtered through a 0.2 μm nylon syringe filter into HPLC vials for drug content analysis. Drug concentration was determined by comparing against a standard calibration curve."}, "[7]": {"test": "In vitro drug release kinetics of Timolol prodrug microparticles in PBS and 1% Tween 20 (pH 7.4) at 37° C.", "assay_type": "physicochemical", "description": "In vitro drug release kinetics were evaluated in a release medium composed of PBS and 1% Tween 20 (pH 7.4). Briefly, 10 mg of particles was suspended in 4 mL of the release medium The particle suspension was incubated on an orbital shaker at 150 rpm at 37° C. At various time points, 3 mL of release media was collected, and the suspension was replenished with 3 mL of fresh release media. Collected release samples were frozen and stored at −80° C. until analysis for drug content. The collected samples were filtered through a 0.2 μm syringe filter and analyzed by RP-HPLC. FIG. 17-FIG. 22 illustrate the total and parent Timolol release profile for the microparticles encapsulating bis-prodrugs of Timolol of Table 11."}, "[8]": {"test": "Stability of Timolol prodrugs in PBS via HPLC", "assay_type": "physicochemical", "details": "PBS (100% PBS)", "description": "The stability of Compound 51 was measured in 100% serum (FIG. 27A), 50% serum and 50% PBS (FIG. 27B), and 100% PBS (FIG. 27C) via HPLC. Each point on the graph is the retention time of Compound 51, parent Timolol, and 4 breakdown products at day 0, 1, 2, 3, 4, or 5 as measured. […] The concentration of the breakdown product with a retention time of 5.454 minutes was higher than the concentration of parent Timolol (retention time=4.4 minutes).\nThe stability of Compound 52 was measured in PBS (FIG. 28) and the stability of Compound 53 was measured in PBS (FIG. 29)."}, "[9]": {"details": "carboxylic acid; cited from earlier work"}, "[10]": {"system": "rabbit eyes", "details": "topical eye drops, cited from earlier work"}, "[11]": {"system": "monkey eyes", "details": "topical eye drops, cited from earlier work"}, "[12]": {"system": "glaucomatous monkey eyes", "details": "ointment, highest concentration of 2.5% ECA, four glaucomatous monkey eyes; cited from earlier work"}, "[13]": {"details": "clinical trials and post-marketing clinical use; cited from earlier work"}, "[14]": {"details": "PLA100 4.5A + 1% PEG-PLGA5050, polymer 200 mg/mL"}, "[15]": {"details": "PLA100 4.5A + PLGA7525 6E (69:30) + 1% PEG-PLGA5050, polymer 200 mg/mL"}, "[16]": {"details": "PLA100 4.5A + PLGA8515 5A (77:22) + 1% PEG-PLGA5050, polymer 200 mg/mL"}, "[17]": {"details": "PLA100 4.5A + PLGA8515 5A + PLGA5050 4A (64:20:15) + 1% PEG-PLGA5050, polymer 200 mg/mL"}, "[18]": {"details": "PLA100 4.5A + PLGA8515 5A + PLGA5050 4A (64:30:5) + 1% PEG-PLGA5050, polymer 200 mg/mL"}, "[19]": {"details": "PLGA7525 4A + 1% PEG-PLGA5050, polymer 200 mg/mL"}}, "note": "“Also recorded” adds a separate entry of the source.", "data": [{"smiles": "C=C(CC)C(=O)c1ccc(OCC(=O)O[C@@H](C)C(=O)O[C@@H](C)C(=O)O[C@@H](C)C(=O)O[C@@H](C)C(=O)O[C@@H](C)C(=O)O[C@@H](C)C(=O)OCC)c(Cl)c1Cl", "note": "[Compound 25, (S)-2-((S)-2-[(S)-2-((S)-2-(2-[2,3-Dichloro-4-(2-methylene-butyryl)-phenoxy]-acetoxy)-propionyloxy)-propionyloxy]-propionyloxy)-propionic acid (S)-1-((S)-1-ethoxycarbonyl-ethoxycarbonyl)-ethyl ester]", "values": [{"measurement": "rate of degradation of the prodrug", "setting": "[1]; 6 days", "value": "degraded slightly slower"}, {"measurement": "prodrug converted to free ECA by day 6", "setting": "[1]; day 6", "value": 56, "unit": "%"}, {"measurement": "% Drug loading", "setting": "[2]; [14]", "value": 13.83, "unit": "%"}, {"measurement": "% Drug loading", "setting": "[2]; [15]", "value": 11.56, "unit": "%"}, {"measurement": "% Drug loading", "setting": "[2]; [16]", "value": 12.29, "unit": "%"}, {"measurement": "% Drug loading", "setting": "[2]; [17]", "value": 14.22, "unit": "%"}, {"measurement": "% Drug loading", "setting": "[2]; [18]", "value": 13.53, "unit": "%"}, {"measurement": "% Drug loading", "setting": "[2]; [19]", "value": 12.43, "unit": "%"}, {"measurement": "% Drug loading", "setting": "[2]; theoretical loading 15", "value": 13.5, "unit": "%"}, {"measurement": "% Encapsulation Efficiency", "setting": "[2]; theoretical loading 15", "value": 90.0, "unit": "%"}, {"measurement": "% Drug loading", "setting": "[2]; theoretical loading 20", "value": 18.1, "unit": "%"}, {"measurement": "% Encapsulation Efficiency", "setting": "[2]; theoretical loading 20", "value": 90.5, "unit": "%"}, {"measurement": "% Drug loading", "setting": "[2]; theoretical loading 30", "value": 27.4, "unit": "%"}, {"measurement": "% Encapsulation Efficiency", "setting": "[2]; theoretical loading 30", "value": 91.3, "unit": "%"}, {"measurement": "% Drug loading", "setting": "[2]; theoretical loading 40", "value": 38.2, "unit": "%"}, {"measurement": "% Encapsulation Efficiency", "setting": "[2]; theoretical loading 40", "value": 95.5, "unit": "%"}, {"measurement": "Mean size", "setting": "[3]; [14]", "value": 27.62, "unit": "um"}, {"measurement": "Mean size", "setting": "[3]; [15]", "value": 26.95, "unit": "um"}, {"measurement": "Mean size", "setting": "[3]; [16]", "value": 27.88, "unit": "um"}, {"measurement": "Mean size", "setting": "[3]; [17]", "value": 26.59, "unit": "um"}, {"measurement": "Mean size", "setting": "[3]; [18]", "value": 26.27, "unit": "um"}, {"measurement": "Mean size", "setting": "[3]; [19]", "value": 26.19, "unit": "um"}, {"measurement": "in vitro release profile of lead microparticle formulation", "setting": "[4]; 1% mPEG-PLGA and 99% PLA100 4.5A:PLGA8515 5A (77:22), prepared in 1% PVA in water, FIG. 11", "value": "much more linear release profile"}, {"measurement": "rate of drug release as a function of drug loading", "setting": "[4]; microparticles with 13.5, 18.1, 27.4 and 38.2 % DL, FIG. 4", "value": "rate of drug release increased with increasing drug loading"}, {"measurement": "hydrolysis products", "setting": "[5]", "value": "hydrolyze into five intermediates"}, {"measurement": "solubility", "setting": "[6]; DMSO, organic solvent or mixture", "value": "> 50", "unit": "mg/mL"}, {"measurement": "solubility", "setting": "[6]; water", "value": "< 0.1", "unit": "mg/mL"}]}, {"smiles": "CC(=O)OCC(=O)O[C@H](COc1nsnc1N1CCOCC1)CN(C(=O)COC(C)=O)C(C)(C)C", "note": "[Compound 52, Timolol-N,O-bis-Glycolic acid-OAc]", "values": [{"measurement": "parent Timolol released relative to total release of prodrug and intermediates", "setting": "[7]; PBS and 1% Tween 20 (pH 7.4), 37° C.", "value": "primarily as native parent Timolol"}, {"measurement": "maximum release duration", "setting": "[7]; in vitro, FIG. 21", "value": "approximately 70 days"}, {"measurement": "stability / breakdown into parent Timolol and breakdown products", "setting": "[8]", "value": "breaks down over the course of 15 days; also recorded: breaks down into parent Timolol"}]}, {"smiles": "CC(=O)OCC(=O)N(C[C@@H](COc1nsnc1N1CCOCC1)OC(=O)COC(=O)C(C)OC(=O)C(C)O)C(C)(C)C", "note": "(stereo partly drawn) [Compound 53, Timolol-N-Glycolic acid-OAc-O-Glycolic acid-PLA (n = 2)-OH]", "values": [{"measurement": "linear (4-month) drug release", "setting": "[7]; in vitro", "value": "did not exhibit linear drug release; also recorded: did not consistently meet the 4-month criteria"}, {"measurement": "stability / breakdown into parent Timolol and breakdown products", "setting": "[8]", "value": "breaks down over the course of 8 days; also recorded: a significant amount of an additional breakdown product"}]}, {"smiles": "C=C(CC)C(=O)c1ccc(OCC(=O)O)c(Cl)c1Cl", "note": "[ECA, ethacrynic acid]", "values": [{"measurement": "pka", "setting": "[9]", "value": "approximately 2.8"}, {"measurement": "ocular adverse effects", "setting": "[10]; especially at higher doses", "value": "corneal edema and moderate diffuse superficial corneal erosion"}, {"measurement": "effect on IOP", "setting": "[10]; rabbit eyes", "value": "effective in decreasing IOP"}, {"measurement": "ocular adverse effects", "setting": "[11]; especially at higher doses", "value": "corneal edema and moderate diffuse superficial corneal erosion"}, {"measurement": "effect on IOP", "setting": "[11]; monkey eyes", "value": "effective in decreasing IOP"}, {"measurement": "ocular adverse effects", "setting": "[12]", "value": "mild eyelid edema, conjunctival hyperemia, and discharge"}]}, {"smiles": "CCN(CC)CCNC(=O)c1c(C)[nH]c(/C=C2\\C(=O)Nc3ccc(F)cc32)c1C", "note": "[Sunitinib]", "values": [{"measurement": "hepatotoxicity", "setting": "[13]", "value": "observed hepatotoxicity"}]}]}
